One assay has as its target T1, Adenosine receptor A1 (Homo sapiens, UniProt P30542).
T1 sequence (P30542 whole entry): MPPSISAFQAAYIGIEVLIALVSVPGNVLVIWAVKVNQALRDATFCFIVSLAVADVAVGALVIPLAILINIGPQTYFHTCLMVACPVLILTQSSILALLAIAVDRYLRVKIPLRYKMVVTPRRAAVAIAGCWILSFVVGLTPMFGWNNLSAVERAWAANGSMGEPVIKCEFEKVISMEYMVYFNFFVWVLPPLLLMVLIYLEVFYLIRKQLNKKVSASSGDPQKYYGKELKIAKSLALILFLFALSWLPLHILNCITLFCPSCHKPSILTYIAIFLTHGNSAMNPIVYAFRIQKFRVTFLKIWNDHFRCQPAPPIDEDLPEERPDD

For assay [1], the target named is Glutamate receptor ionotropic, NMDA 1 (Rattus norvegicus, UniProt P35439).
Assay [2] has as its target 5-hydroxytryptamine receptor 2B (Homo sapiens, UniProt P41595). It counts as functional, cell-based.
A further assay addresses T2, Glucocorticoid receptor (Homo sapiens, UniProt P04150).
T2 sequence (P04150 whole entry): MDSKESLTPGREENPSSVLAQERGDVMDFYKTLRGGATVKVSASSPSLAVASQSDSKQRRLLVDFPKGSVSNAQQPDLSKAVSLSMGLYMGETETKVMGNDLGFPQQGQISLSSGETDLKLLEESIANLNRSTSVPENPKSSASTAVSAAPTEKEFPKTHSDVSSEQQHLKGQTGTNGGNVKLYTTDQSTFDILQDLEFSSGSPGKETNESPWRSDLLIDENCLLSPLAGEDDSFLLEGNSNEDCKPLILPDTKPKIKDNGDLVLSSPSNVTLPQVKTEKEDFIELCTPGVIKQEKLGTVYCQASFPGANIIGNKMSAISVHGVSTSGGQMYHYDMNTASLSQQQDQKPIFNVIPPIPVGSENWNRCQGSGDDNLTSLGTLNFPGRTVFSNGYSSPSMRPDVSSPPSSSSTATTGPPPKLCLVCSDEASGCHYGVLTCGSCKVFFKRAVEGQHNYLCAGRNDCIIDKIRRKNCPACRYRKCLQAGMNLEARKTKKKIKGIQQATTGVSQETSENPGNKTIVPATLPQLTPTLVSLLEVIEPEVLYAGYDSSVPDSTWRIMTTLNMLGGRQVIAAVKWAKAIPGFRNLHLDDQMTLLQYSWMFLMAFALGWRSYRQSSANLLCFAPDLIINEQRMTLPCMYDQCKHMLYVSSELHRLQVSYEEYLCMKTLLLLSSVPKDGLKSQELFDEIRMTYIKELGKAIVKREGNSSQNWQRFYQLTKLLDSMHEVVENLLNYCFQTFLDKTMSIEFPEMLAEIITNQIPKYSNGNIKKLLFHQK

In the next assay the target is T3, Progesterone receptor (Homo sapiens, UniProt P06401).
T3 sequence (P06401 whole entry): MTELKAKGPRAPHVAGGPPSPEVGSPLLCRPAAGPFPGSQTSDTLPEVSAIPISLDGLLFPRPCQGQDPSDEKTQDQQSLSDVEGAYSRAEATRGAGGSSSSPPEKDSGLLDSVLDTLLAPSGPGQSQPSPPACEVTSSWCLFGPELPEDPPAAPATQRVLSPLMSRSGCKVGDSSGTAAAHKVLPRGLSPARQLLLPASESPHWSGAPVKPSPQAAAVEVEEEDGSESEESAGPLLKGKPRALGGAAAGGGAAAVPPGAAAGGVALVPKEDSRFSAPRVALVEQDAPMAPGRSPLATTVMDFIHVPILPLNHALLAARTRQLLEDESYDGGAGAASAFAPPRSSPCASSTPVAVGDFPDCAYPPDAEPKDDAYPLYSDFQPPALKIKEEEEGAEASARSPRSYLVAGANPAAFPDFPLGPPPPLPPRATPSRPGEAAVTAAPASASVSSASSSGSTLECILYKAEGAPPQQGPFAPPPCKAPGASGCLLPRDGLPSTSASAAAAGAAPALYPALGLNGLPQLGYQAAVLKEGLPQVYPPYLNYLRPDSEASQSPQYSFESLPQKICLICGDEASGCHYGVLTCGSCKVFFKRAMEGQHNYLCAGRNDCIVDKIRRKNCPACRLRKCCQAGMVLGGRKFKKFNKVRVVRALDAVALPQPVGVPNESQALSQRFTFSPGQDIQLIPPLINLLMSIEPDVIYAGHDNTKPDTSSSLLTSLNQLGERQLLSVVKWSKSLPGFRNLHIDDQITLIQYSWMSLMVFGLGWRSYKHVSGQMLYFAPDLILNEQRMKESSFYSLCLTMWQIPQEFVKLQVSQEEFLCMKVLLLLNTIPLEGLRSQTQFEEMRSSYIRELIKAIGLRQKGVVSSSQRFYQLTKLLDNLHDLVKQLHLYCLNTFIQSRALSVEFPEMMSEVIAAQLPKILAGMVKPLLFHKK
It counts as functional.

For assay [3], the target named is T4, Alpha-1A adrenergic receptor (Homo sapiens, UniProt P35348).
T4 sequence (P35348 whole entry): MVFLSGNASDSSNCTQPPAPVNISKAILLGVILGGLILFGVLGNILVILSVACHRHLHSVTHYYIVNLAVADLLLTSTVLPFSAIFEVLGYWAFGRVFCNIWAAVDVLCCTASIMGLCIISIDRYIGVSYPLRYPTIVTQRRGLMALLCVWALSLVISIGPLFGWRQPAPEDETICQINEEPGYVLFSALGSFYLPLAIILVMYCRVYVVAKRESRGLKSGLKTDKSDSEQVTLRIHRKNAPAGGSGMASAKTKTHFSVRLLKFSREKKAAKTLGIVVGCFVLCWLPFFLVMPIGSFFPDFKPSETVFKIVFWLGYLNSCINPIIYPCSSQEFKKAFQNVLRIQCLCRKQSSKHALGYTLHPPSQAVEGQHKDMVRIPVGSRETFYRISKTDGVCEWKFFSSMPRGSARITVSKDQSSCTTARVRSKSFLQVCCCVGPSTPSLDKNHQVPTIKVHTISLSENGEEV
The assay is classed as functional, cell-based.

Another assay has as its target Histamine H3 receptor (Homo sapiens, UniProt Q9Y5N1).

A value given as a limit tells only on which side of the number the result lay.

The AC50 is the concentration giving half of the maximal activity seen. A high value points to activity only at high concentration.
Note: assay procedure not described here.

Chain of 5-hydroxytryptamine receptor 2B (P41595 whole entry): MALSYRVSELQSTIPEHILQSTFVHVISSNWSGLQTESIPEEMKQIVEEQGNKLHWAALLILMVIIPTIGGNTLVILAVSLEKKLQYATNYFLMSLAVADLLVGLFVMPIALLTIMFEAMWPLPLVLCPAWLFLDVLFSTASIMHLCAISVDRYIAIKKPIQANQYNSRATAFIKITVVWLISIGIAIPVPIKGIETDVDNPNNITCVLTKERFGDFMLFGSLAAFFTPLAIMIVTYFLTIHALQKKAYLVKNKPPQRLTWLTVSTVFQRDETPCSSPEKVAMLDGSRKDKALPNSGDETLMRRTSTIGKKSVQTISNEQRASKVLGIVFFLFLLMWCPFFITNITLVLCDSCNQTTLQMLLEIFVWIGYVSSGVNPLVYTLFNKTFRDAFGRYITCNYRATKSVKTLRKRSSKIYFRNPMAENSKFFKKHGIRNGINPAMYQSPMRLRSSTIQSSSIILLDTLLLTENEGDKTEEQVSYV
Chain of Histamine H3 receptor (Q9Y5N1 whole entry): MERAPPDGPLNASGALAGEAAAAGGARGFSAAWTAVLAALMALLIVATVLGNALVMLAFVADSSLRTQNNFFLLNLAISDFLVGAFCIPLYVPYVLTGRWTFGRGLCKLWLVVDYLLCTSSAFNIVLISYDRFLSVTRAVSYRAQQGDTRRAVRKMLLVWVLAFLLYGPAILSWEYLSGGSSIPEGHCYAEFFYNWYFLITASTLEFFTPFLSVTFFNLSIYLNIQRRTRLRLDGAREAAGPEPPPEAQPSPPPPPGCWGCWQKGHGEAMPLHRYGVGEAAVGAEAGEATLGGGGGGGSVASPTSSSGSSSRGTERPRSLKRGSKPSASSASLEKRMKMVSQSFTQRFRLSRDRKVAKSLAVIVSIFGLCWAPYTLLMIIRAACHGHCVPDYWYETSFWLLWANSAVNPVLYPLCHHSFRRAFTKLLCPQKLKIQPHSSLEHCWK

In the case of `C=C[C@@]1(C)CC(=O)[C@]2(O)[C@@]3(C)[C@@H](O)CCC(C)(C)[C@@H]3[C@H](O)[C@H](OC(C)=O)[C@@]2(C)O1` [COLFORSIN], the AC50 at Adenosine receptor A1 was over 30 µM; in assay [1] it was over 30 µM; in assay [2], over 30 µM; at Glucocorticoid receptor, over 30 µM; on Progesterone receptor, over 30 µM; in assay [3], 3.5 µM. At Histamine H3 receptor, the AC50 was over 30 µM.

On to `CCC(COC(=O)c1cc(OC)c(OC)c(OC)c1)(c1ccccc1)N(C)C` (stereo not given) [TRIMEBUTINE], for which the half-maximal activity concentration (AC50) (on Adenosine receptor A1; in assay [1]; in assay [2]; at Glucocorticoid receptor; at Progesterone receptor; in assay [3]) was over 30 µM each time. At Histamine H3 receptor, this compound returned an AC50 of over 30 µM.

For the compound `CCCCCCCCCCCCCCCCCCCCCC(=O)Nc1ccn([C@@H]2O[C@H](CO)[C@@H](O)[C@@H]2O)c(=O)n1` [ENOCITABINE], the AC50 (on Adenosine receptor A1; in assay [1]; in assay [2]; at Glucocorticoid receptor; at Progesterone receptor; in assay [3]) was over 30 µM each time. On Histamine H3 receptor, this compound registered an AC50 of over 30 µM.

On to `O=C(O)c1ccccc1Nc1cc(Cl)ccc1C(=O)O` [LOBENZARIT], for which the AC50 on Adenosine receptor A1 is over 30 µM; in assay [1], 25 µM; in assay [2], over 30 µM; on Glucocorticoid receptor it was over 30 µM; on Progesterone receptor it was over 30 µM; in assay [3], over 30 µM. For the same compound, the AC50 on Histamine H3 receptor was over 30 µM.

As for `CCN(CC)CCNC(=O)c1cc(S(C)(=O)=O)ccc1OC` [TIAPRIDE], the AC50 at Adenosine receptor A1 is over 30 µM; in assay [1], over 30 µM; in assay [2] it was 29 µM; on Glucocorticoid receptor, over 30 µM; at Progesterone receptor, over 30 µM; in assay [3], over 30 µM. For the same compound, the AC50 on Histamine H3 receptor was over 30 µM.

In the case of `COc1ccc2nc3cc(Cl)ccc3c(Nc3cc(CN4CCCC4)c(O)c(CN4CCCC4)c3)c2n1` [PYRONARIDINE], the AC50 at Adenosine receptor A1 is over 30 µM; in assay [1], over 30 µM; in assay [2] it was over 30 µM; at Glucocorticoid receptor, over 30 µM; on Progesterone receptor, 14 µM; in assay [3] it was over 30 µM. At Histamine H3 receptor, this compound showed an AC50 of over 30 µM.

For the compound `Oc1ccc2c(c1)[C@@]13CCCC[C@@]1(O)[C@@H](C2)N(CC1CCC1)CC3` [BUTORPHANOL], the AC50 (on Adenosine receptor A1; in assay [1]; in assay [2]; on Glucocorticoid receptor; at Progesterone receptor; in assay [3]) was over 30 µM each time. The compound further displayed an AC50 at Histamine H3 receptor of over 30 µM.

As for `CCCCCC(=O)O[C@]1(C(C)=O)CC[C@H]2[C@@H]3CCC4=CC(=O)CC[C@]4(C)[C@H]3CC[C@@]21C` [HYDROXYPROGESTERONE CAPROATE], the AC50 on Adenosine receptor A1 is over 30 µM; in assay [1], over 30 µM; in assay [2], over 30 µM; on Glucocorticoid receptor, 0.007 µM; at Progesterone receptor, 0.003 µM; in assay [3] it was over 30 µM. Besides, the AC50 at Histamine H3 receptor is over 30 µM.

In the case of `CCN(CC)C(=O)Nc1ccc(OCC(O)CNC(C)(C)C)c(C(C)=O)c1` (stereo not given) [CELIPROLOL], the AC50 (on Adenosine receptor A1; in assay [1]; in assay [2]; on Glucocorticoid receptor; on Progesterone receptor; in assay [3]) was over 30 µM in each case. On Histamine H3 receptor, this compound returned an AC50 of over 30 µM.

For `COc1ccc(-c2noc(CC(=O)O)c2-c2ccc(OC)cc2)cc1` [MOFEZOLAC], the AC50 (on Adenosine receptor A1; in assay [1]; in assay [2]; on Glucocorticoid receptor; on Progesterone receptor; in assay [3]) was over 30 µM in each case. For the same compound, the AC50 on Histamine H3 receptor is over 30 µM.

`CC(=O)O[C@H](CC(=O)[O-])C[N+](C)(C)C` [ACETYLCARNITINE]: the AC50 (at Adenosine receptor A1; in assay [1]; in assay [2]; at Glucocorticoid receptor; on Progesterone receptor; in assay [3]) was over 30 µM each time. For the same compound, the AC50 at Histamine H3 receptor was over 30 µM.

Regarding `CCOC(=O)O[C@]1(C(=O)OCCl)CC[C@H]2[C@@H]3CCC4=CC(=O)C=C[C@]4(C)[C@H]3[C@@H](O)C[C@@]21C` [LOTEPREDNOL ETABONATE], the AC50 on Adenosine receptor A1 was over 30 µM; in assay [1], over 30 µM; in assay [2] it was over 30 µM; on Glucocorticoid receptor, 0.0056 µM; at Progesterone receptor it was 0.024 µM; in assay [3] it was over 30 µM. Further, on Histamine H3 receptor, the AC50 is over 30 µM.

With `CC1=C(C)C(=O)C(C(CCCCCC(=O)O)c2ccccc2)=C(C)C1=O` (stereo not given) [SERATRODAST], the AC50 (on Adenosine receptor A1; in assay [1]; in assay [2]; on Glucocorticoid receptor; on Progesterone receptor; in assay [3]) was over 30 µM throughout. In addition, the AC50 at Histamine H3 receptor was over 30 µM.

As for `NC(=O)CN1CCCC1=O`, the AC50 (on Adenosine receptor A1; in assay [1]; in assay [2]; at Glucocorticoid receptor; on Progesterone receptor; in assay [3]) was over 30 µM in each case. Moreover, the AC50 at Histamine H3 receptor was over 30 µM.

As to `C=C1/C(=C\C=C2/CCC[C@]3(C)[C@@H]([C@H](C)/C=C/[C@@H](O)C4CC4)CC[C@@H]23)C[C@@H](O)C[C@@H]1O` [CALCIPOTRIENE], the AC50 (at Adenosine receptor A1; in assay [1]; in assay [2]; at Glucocorticoid receptor; on Progesterone receptor; in assay [3]) was over 30 µM throughout. This compound also gave an AC50 at Histamine H3 receptor of over 30 µM.

The values above are taken from ChEMBL document CHEMBL5291721, “A preclinical secondary pharmacology resource illuminates target-adverse drug reaction associations of marketed drugs” (Nat Commun, 2023).
